Experimental data: publication PMC6931124, “NPY1R-targeted peptide-mediated delivery of a dual PPARα/γ agonist to adipocytes enhances adipogenesis and prevents diabetes progression” (Molecular Metabolism, 2019)

Tests used:
[1] = test system: SGBS preadipocytes; test: AdipoRed adipogenesis assay, SGBS; assay type: cell-based, human; conditions: 24 h; tesa 10/25/100 μM, tesa-NPY 100 μM; AdipoRed fluorescence, DMSO = 100%; n = 3 in quadruplicate
Protocol: 3T3-L1 or SGBS cells were seeded into 96-well plates and grown to complete confluency (set as day 0). On day 2 of confluence, the 3T3-L1 cells were differentiated by DMEM High Glucose Medium supplemented with 10% (v/v) not-heat inactivated FCS, 0.5 mM IBMX, 167 nM human insulin, and 1 μM dexamethasone (differentiation medium). On day 4, the medium was replaced by insulin medium (DMEM High Glucose Medium, 10% not-heat inactivated FCS, and 167 nM human insulin). On day 6, the medium was changed to standard culture medium and changed every other day until full differentiation was achieved (on day 8). The SGBS cells were differentiated as previously described. […] On day 4, the medium was replaced by 3FC medium (DMEM High Glucose Medium and Hams F12 (1:1 (v/v))) without FCS and supplemented with 0.01 mg human apo-transferrin, 20 nM human insulin, triiodo-L-thyronine, and 100 nM hydrocortisone. The medium was changed every second day until full differentiation was achieved (day 10). […]
(A, B) Cells were differentiated and stimulated according to the protocol depicted for 3T3-L1 (A) and for SGBS (B). […] (E,F) Expression of adipocyte-enriched genes in 3T3-L1 (E) or SGBS (F) adipocytes analyzed by qPCR. […] Statistical significances refer to DMSO-treated cells and were determined by one-way analysis of variance (ANOVA) followed by Dunnett's multiple comparison test, *≤0.05, **p ≤ 0.01, ***p ≤ 0.001.

[2] = test system: subcutaneous and epigonadal adipose tissue; test: Adipose tissue histology and adipocyte size; assay type: in vivo; conditions: db/db mice, 2.5 μmol/kg/day, 8 days; H&E, epigonadal and subcutaneous AT
Protocol: (§1) All of the experiments were performed according to the animal ethical laws of the state Saxony, Germany, and were approved by the local animal ethics review board (Landesdirektion Sachsen, Leipzig, Germany). Female db/db mice 12–15 weeks of age were purchased from Taconic (Denmark) and housed in groups of 5 in temperature- and humidity-controlled facilities in a 12 h:12 h light–dark cycle and had free access to tap water and food (regular chow, Sniff, Soest, Germany). Three out of seven groups served as controls (N = 15, see Table 1). The 5 db/db mice were untreated and 10 db/db mice were vehicle treated either orally or intraperitoneally (i.p.). One additional group (n = 5) of lean C57BL/6NTac mice was used as a metabolically healthy control group. Groups 1 to 5 were treated daily with 2.5 μmol/kg body weight tesa, peptides or vehicle (1% (v/v) DMSO in PBS) either by gavage or intraperitoneal injection for 8 days according to Table 1. The control mice were gavaged with an equal volume of vehicle.

[3] = HbA1C; assay type: in vivo; conditions: db/db mice, 2.5 μM/kg/day, 8 days
Protocol: as §1, with “One additional group (n = 5) of lean C57BL/6NTac mice was used as a metabolically healthy control group. Groups 1 to 5 were treated daily with 2.5 μmol/kg body weight tesa, peptides or vehicle (1% (v/v) DMSO in PBS) either by gavage or intraperitoneal injection for 8 days according to Table 1. The control mice were gavaged with an equal volume of vehicle.” left out
All of the mice were monitored for 9 days during the treatment period. Body weight, food intake, and water uptake were recorded daily and body composition (lean body mass and whole body fat mass) was recorded at the beginning, middle, and end of the study in the conscious mice using an EchoMRI system (Echo Medical Systems, Houston, TX, USA). At the beginning and end of the treatment period, the HbA1c levels were determined from 5 μl of whole venous blood samples using an automated chemical analyzer at the Institute of Laboratory Medicine and Clinical Chemistry and beta-ketone using an automated glucose monitor (FreeStyle Precision H, Abbott GmbH, Ludwigshafen, Germany). […]

[4] = Serum Mcp-1; assay type: in vivo; conditions: db/db mice, 2.5 μmol/kg/day, 8 days; ELISA; n = 5
Protocol: as §1, with “Groups 1 to 5 were treated daily with 2.5 μmol/kg body weight tesa, peptides or vehicle (1% (v/v) DMSO in PBS) either by gavage or intraperitoneal injection for 8 days according to Table 1. The control mice were gavaged with an equal volume of vehicle.” left out
Serum insulin (mouse insulin ELISA, Mercodia, Uppsala, Sweden), adiponectin (mouse adiponectin ELISA, AdipoGen, San Diego, CA, USA), leptin (mouse leptin ELISA, Crystal Chem, Downers Grove, IL, USA), and Mcp-1 (mouse/rat CCL2/JE/Mcp-1 Quantikine ELISA, R&D Systems, Minneapolis, MN, USA) levels were analyzed via ELISA according to the manufacturer's instructions. Serum concentrations of TG, FFA, and cholesterol were measured by an automatic chemical analyzer at the Institute of Laboratory Medicine and Clinical Chemistry.

[5] = test system: PPARγ mRNA in liver; test: PPARγ mRNA expression in liver; assay type: in vivo; conditions: db/db mice, 2.5 μM/kg/day, 8 days; qRT-PCR relative to control animals
Protocol: The 3T3-L1 or SGBS cells were seeded into 6-well plates and differentiated as previously described. Tesa or peptides were added to the differentiation medium at a concentration of 100 μM on day 2, followed by 12 h or 24 h incubation. On day 4, the cells were washed two times with PBS, harvested by trypsinization, and stored at −70 °C until RNA isolation was performed. […] N ≥ 3 independent experiments with two replicates were performed. For the cell culture experiments, the data were analyzed according to the 2^−ΔΔCt method using 36B4 or GAPDH as housekeeping genes and DMSO treatment as a control. Liver mRNA expression was calculated relative to 18sRNA, which was used as an internal control due to its resistance to glucose-dependent regulation. The mRNA levels were quantified using the standard curve method of QuantStudio 6 Flex software (Applied Biosystems, Foster City, CA, USA), determining the crossing points of the individual samples using an algorithm that identifies the first turning point of the fluorescence curve. Amplification of the specific transcripts was confirmed by the melting curve profiles (cooling the sample to 68 °C and heating slowly to 95 °C while measuring the fluorescence) at the end of each PCR [53]. […]

[6] = volunteers, ref [111]; cited from earlier work
Excerpt: Thus, the observed anti-diabetic effects are assumed to result from adipocyte-specific PPARγ-mediate ...

[7] = test system: LDL receptor-deficient mice; conditions: ref [94]; cited from earlier work

For `CCO[C@@H](Cc1ccc(OCCc2ccc(OS(C)(=O)=O)cc2)cc1)C(=O)O` [tesa, tesaglitazar], the “adipogenesis (triglyceride content), SGBS” value [1] was “enhanced adipogenesis in both cell lines”, the adipocyte size [2] was “trend toward smaller adipocyte size” and the HbA1C change ([3]; vehicle/untreated increased by approximately 2%, n = 5) was “graduated reduced increase”. For the same compound, the diabetes progression ([3]; 12-16 weeks old) was “deceleration of disease progression”, the Mcp-1 levels [4] was “no significant effect” and the “expression of PPARγ in the liver” value [5] was “significantly enhanced the expression of PPARγ in the liver”. The “absorption after oral dosing” value [6] was “rapidly and completely absorbed after oral dosing” and the “atherosclerosis in LDL receptor-deficient mice” value [7] was “reduces atherosclerosis in LDL receptor-deficient mice”.
